Data taken from patent publication US6624141B1, “Protamine fragment compositions and methods of use” (The Regents of The University of Michigan, priority 1999, dated 2003).
Where two headings read alike, the source gives them in different places.

How the values were obtained:
[1] = Binding constant to LMWH determined with the heparin sensor
Source text: (§1) With the assistance of the heparin sensor and the methodology described previously (Yun et al., 1993), the inventors were able to determine the binding constant of heparin and LMWH to ATIII, protamine, and LMWP.

[2] = tested on: anti-Xa activity of CY216 (LMWH); assay: Neutralization of LMWH (CY216) by anti-Xa chromogenic substrate assay; type: biochemical; conditions: dose of 30 μg
Procedure: (§2) Heparin neutralization by protamine and LMWP was also measured in plasma by anti-factor Xa chromogenic assay and activated partial thromboplastin time (aPTT) clotting assay (Yang et al., 1986). In brief, for the anti-factor Xa assay, a series of plasma samples containing 0.4 mg of heparin, 15 IU of ATIII, and various amounts of protamine (0-0.8 mg) or LMWP (0-0.4 mg) were prepared. One hundred microliters of the plasma sample were then mixed with 800 μl of Tris-HCl buffer (pH 7.4), followed by the addition of 100 μl of Factor Xa (7.1 nkat/ml). After a 3 min incubation at 37° C., 200 μl of […] substrate (0.5 mg/ml) were added. The reaction mixture was incubated for 5 min at 37° C. and then quenched by the addition of 200 μl of 20% acetic acid. The absorbance in the solution was measured at 405 nm, and the degree of heparin neutralization is proportional to this measured absorbance.
Neutralization of the anticoagulant functions of both heparin and LMWH by protamine and LMWP is studied in human plasma using the aPTT clotting assay and the chromagenic anti-Xa and anti-IIa assays (Yang et al., 1986). The aPTT values of the test samples, are measured using a fibrometer (Fibrosystem; Becton-Dickinson, Cockeysville, Md.), and the anti-Xa and anti-IIa activities are measured using the chromagenic substrates S-2222 and S-2238, respectively. […]

[3] = cited from earlier work
[4] = Binding constant to heparin determined with the heparin sensor
Source text: as §1

[5] = cited from earlier work; remark: listed apart in the source
aPTT activity of heparin = assay: Heparin neutralization by aPTT clotting assay; type: biochemical, human; conditions: heparin 1 mg
Procedure: For the aPTT clotting assay, 15 μl of heparin solution (20 μg/ml) was mixed with 15 μl of solution containing various concentrations of protamine (0-60 μg/ml) or LMWP species (0-100 μg/ml). To the mixture, 100 μl of actin cephaloplastin and 100 μl of plasma were added. After 3 min of incubation, 100 μl of 0.02 M calcium chloride (preheated to 37° C.) was added and the clotting time was immediately measured using a fibrometer (Fibrosystem, Becton Dickinson Company, Cockeysville, Md.).

[6] = tested on: anti-Xa activity of heparin; assay: Heparin neutralization by anti-factor Xa chromogenic assay; type: biochemical, human; conditions: heparin 40 μg; half-points of ΔAbs in FIG. 5
Procedure: as §2

[7] = Immunogenicity in mice, IgG antibody production by ELISA; type: in vivo; conditions: immunized with 50 μg in CFA plus boosters; ELISA on wells coated with the same species
Procedure: The immunogenicity of protamine and LMWP was examined in mice. The production of polyclonal antibodies was performed as described (Cooper and Paterson, 1991). Fifteen thin-skinned albino mice, ten for protamine and five for LMWP were included. Each mouse was immunized with 50 μg of either protamine or LMWP in the complete Freund's adjuvant (CFA). Four weeks later, animals were bled and first booster was given with 5 μg of protamine (or LMWP) in incomplete Freund's adjuvant (IFA). Second and third boosters were given at two-week intervals. Afterwards, blood was collected, allowed to clot, and centrifuged to collect serum. All sera were tested for IgG antibodies using a modified ELISA method (Singh et al., 1982). Protamine or LMWP was used to coat the wells of the microplate in order to capture their related antibodies. The detection antibody was goat-antimouse-IgG-alkaline phosphatase that was reacted with p-nitrophenylphosphate to produce the absorbance readings at 405 nm. The antigenicity of LMWP was examined by following the same ELISA method described above but by utilizing a LMWP-coated microplate for antibody detection in the protamine-immunized mice.

[8] = Blood glucose control in streptozotocin-diabetic rats; type: in vivo; conditions: data from 6 rats
Procedure: Induction of diabetes in rats was carried out by the injection of streptozotocin at a dose of 45 mg/kg body weight. Diabetes was confirmed 24 h after injection by measuring the tail blood glucose with a Lifescan Glucometer (One Touch II).

| Binding Constant to LMWH [1] | Binding Constant to LMWH ([1]; listed as protamine) | Binding Constant to Heparin [4] | Binding Constant to Heparin ([4]; listed as protamine) | Substance | neutralization of the anti-Xa activity of CY216 [2] | units of heparin neutralized by each milligram ([3]; heparin derived from bovine lung tissue) | units of heparin neutralized by each milligram ([3]; heparin derived from porcine intestinal mucosa) | pKa [5] | amount required to completely neutralize the aPTT activity of heparin (aPTT activity of heparin) | dose required for 50% heparin neutralization [6] | mice with positive reaction for antibodies [7] | overall time span to preserve a low glucose level [8] | time required to reach the minimum glucose level [8] |
| --- | --- | --- | --- | --- | --- | --- | --- | --- | --- | --- | --- | --- | --- |
| 1.1 ± 0.3 µM⁻¹ | 1.1 µM⁻¹ | 89.0 ± 2.0 µM⁻¹ | 89 µM⁻¹ | Protamine | 60% | approximately 90 units | ~115 units | about 10 | ~1.7 mg | 7 nmol | 4 out of 10 and four out of ten |  |  |
|  |  |  |  | insulin |  |  |  |  |  |  |  | 360 ± 50 min | 100 ± 20 min |
